According to ChEMBL document CHEMBL1126037, “4'-modified analogues of aristeromycin and neplanocin A: synthesis and inhibitory activity toward S-adenosyl-L-homocysteine hydrolase” (J Med Chem, 1992):
Active and inactive are the calls of the source. No cut-off for these calls is given here.

Experiments:
[1] = tested on: Adenosylhomocysteinase (Bos taurus)
[2] = tested on: Adenosylhomocysteinase (Bos taurus); experiment: Inhibitory activity against bovine liver S-adenosyl-L-homocysteine hydrolase (AdoHcy); c = Inactive up to 100 uM
[3] = tested on: Adenosylhomocysteinase (Bos taurus); experiment: Kinetic constant against bovine liver S-adenosyl-L-homocysteine hydrolase (AdoHcy); c = Inactive up to 100 uM
[4] = target: Adenosylhomocysteinase (Homo sapiens) (UniProt P23526); conditions: Bos taurus
Chain of Adenosylhomocysteinase (Homo sapiens) (P23526 2-432 limits assumed): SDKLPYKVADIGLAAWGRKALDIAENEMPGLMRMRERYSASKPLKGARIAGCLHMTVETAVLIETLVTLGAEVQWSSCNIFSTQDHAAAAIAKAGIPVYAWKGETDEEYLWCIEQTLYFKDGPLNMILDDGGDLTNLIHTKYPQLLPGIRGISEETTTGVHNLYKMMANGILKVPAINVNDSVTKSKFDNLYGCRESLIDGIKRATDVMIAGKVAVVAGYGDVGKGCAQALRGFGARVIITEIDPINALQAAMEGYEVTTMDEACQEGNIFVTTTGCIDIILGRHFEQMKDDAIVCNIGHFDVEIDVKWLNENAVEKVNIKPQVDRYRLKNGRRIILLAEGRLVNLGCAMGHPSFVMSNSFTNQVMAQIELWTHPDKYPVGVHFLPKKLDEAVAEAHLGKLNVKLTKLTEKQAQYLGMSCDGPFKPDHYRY
Description: Kinetic constant against bovine liver S-adenosyl-L-homocysteine hydrolase (AdoHcy); reversibleinhibitor

[5] = target: Adenosylhomocysteinase (Homo sapiens) (UniProt P23526); conditions: Bos taurus; remark: listed apart in the source

Row | SMILES | k2 [1] | further results
1 | C[C@@H]1C[C@@H](n2cnc3c(N)ncnc32)[C@H](O)[C@@H]1O | 0.025 min⁻¹ | –
2 | CC1=C[C@@H](n2cnc3c(N)ncnc32)[C@H](O)[C@@H]1O | 0.09 min⁻¹ | –
3 | CC[C@H]1C[C@@H](n2cnc3c(N)ncnc32)[C@H](O)[C@@H]1O | 0.083 min⁻¹ | –
4 | CCC1=C[C@@H](n2cnc3c(N)ncnc32)[C@H](O)[C@@H]1O | – | Ki [2]: Inactive; k2 [3]: inactive
5 | Nc1ncnc2c1ncn2[C@@H]1C[C@H](c2ccccc2)[C@@H](O)[C@H]1O | 0.01 min⁻¹ | –
6 | Nc1ncnc2c1ncn2[C@@H]1C[C@H](CO)[C@@H](O)[C@H]1O | – | k2 [4]: Reversible inhibition
7 | C=C[C@H]1C[C@@H](n2cnc3c(N)ncnc32)[C@H](O)[C@@H]1O | 0.053 min⁻¹ | –
8 | Nc1ncnc2c1ncn2[C@@H]1C=C[C@@H](O)[C@H]1O | 0.043 min⁻¹ | –
9 | C[C@H]1C[C@@H](n2cnc3c(N)ncnc32)[C@H](O)[C@@H]1O | 0.039 min⁻¹ | –
10 | Nc1ncnc2c1ncn2[C@@H]1C=C(CO)[C@@H](O)[C@H]1O | – | k2 [5]: 1.98 min⁻¹
11 | Nc1ncnc2c1ncn2[C@@H]1CC[C@@H](O)[C@H]1O | 0.109 min⁻¹ | –
